Source: patent publication US8084455B2, “Use of a kinase inhibitor for the treatment of particular resistant tumors” (Nerviano Medical Sciences S.r.l., priority 2006, dated 2011)
Changes are numbered by the printed parent chain. Read-outs that look alike come from different tables or passages of the source.

Columns and labels:
[1] = test system: Imatinib-resistant ABL mutants; settings: literature; cited from earlier work
[2] = molecular target: T1, T315I ABL mutant kinase domain (Homo sapiens, UniProt P00519, T315I); settings: Table 4; displacement of probe 3.2 at 0.2 μM
T1 sequence (P00519 229-512 T315I): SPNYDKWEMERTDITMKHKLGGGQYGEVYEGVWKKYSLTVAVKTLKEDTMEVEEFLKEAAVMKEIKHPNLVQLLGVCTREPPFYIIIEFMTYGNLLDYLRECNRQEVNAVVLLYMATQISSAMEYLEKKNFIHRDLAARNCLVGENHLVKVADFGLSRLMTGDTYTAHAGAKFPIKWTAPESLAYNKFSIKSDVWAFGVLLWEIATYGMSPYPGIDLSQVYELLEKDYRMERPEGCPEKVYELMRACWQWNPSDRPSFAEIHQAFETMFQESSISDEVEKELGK

[3] = molecular target: T2, Wild-type ABL 0P (unphosphorylated ABL kinase domain) (Homo sapiens, UniProt P00519); settings: Table 4; displacement of probe 3.2 at 2 μM
T2 sequence (P00519 229-512): T1 sequence (P00519 229-512 T315I) with I87T
Procedure: (§1) In particular, titration data were fitted to the following equilibria: Enzyme+probe<==>Complex Enzyme-probe, while displacement data were fitted to the following equilibria: Enzyme+probe<==>Complex Enzyme-probe, Enzyme+Compound<==>Complex Enzyme-Compound, whereby binding of probe and compound on the enzyme are mutually exclusive (pure competitive mechanism).
(§2) The mixture of enzyme and probe was added to the previously diluted compounds. […] In agreement, affinity binding constants (KD) were determined by fitting with a pure competitive mechanism. KD values, are the average of three independent experiments.
(§3) The applied conditions were the same except for the saturating probe concentration (2, 3.3 and 0.2 μM for ABL wild-type unphosphorylated (0P), wild-type and T315I, respectively) and the probe final concentration (2, 3.3 and 0.2 μM for ABL wild-type unphosphorylated (0P), wild-type and T315I, respectively).
(§4) The displacement assay was performed as described before, with 3 μM as the highest inhibitor concentration tested.

[4] = molecular target: T1, T315I ABL mutant kinase domain; settings: Table 1; displacement of probe 3.1 at 0.42 μM, 10 nM enzyme, average of three experiments
[5] = molecular target: T3, Wild-type ABL kinase domain (Homo sapiens, UniProt P00519); settings: Table 4; displacement of probe 3.2 at 3.3 μM
T3 sequence (P00519 229-512): T1 sequence (P00519 229-512 T315I) with I87T
Procedure: as §1, §2, §3, §4

[6] = molecular target: T3, Wild-type ABL kinase domain; settings: Table 1; displacement of probe 3.1 at 0.12 μM, 10 nM enzyme, average of three experiments
Procedure: (§5) In all experiments, the fluorescence signal was measured using a Fusion α-FP HT plate reader (Packard). Data analysis was performed using the Dynafit software.
as §1, §2
(§6) The displacement assay was performed as described before, with 3 μM as the highest inhibitor concentration tested with dilution steps 1:1.5.

[7] = molecular target: T2, Wild-type ABL 0P (unphosphorylated ABL kinase domain); settings: Table 1; displacement of probe 3.1 at 0.15 μM, 10 nM enzyme, average of three experiments
Procedure: as §5, §1, §2, §6

Row | SMILES | activity against Imatinib-resistant ABL mutants [1] | Kd [2] [µM] | Kd [3] [µM] | Kd [4] [µM] | Kd [5] [µM] | Kd [6] [µM] | Kd [7] [µM]
1 | Cc1cn(-c2cc(NC(=O)c3ccc(C)c(Nc4nccc(-c5cccnc5)n4)c3)cc(C(F)(F)F)c2)cn1 [AMN107] | active against the majority |  |  |  |  |  | 
2 | Nc1ncnc2c1ncn2[C@@H]1O[C@H](COP(=O)(O)OP(=O)(O)OP(O)(O)=S)[C@@H](O)[C@H]1O [ATPγS] |  | 2.61 ± 0.9 | 6.6 ± 1.6 | 2 ± 0.21 | 4.8 ± 1 | 9 ± 1.9 | 9.5 ± 3.4
